Results taken from patent US8241393B2, “Methods and articles for gold nanoparticle production” (The Curators of the University of Missouri, priority 2005, dated 2012).

Experiment: Stabilization/storage of gold nanoparticles by exposure to a phosphino amino acid
Type: physicochemical
Excerpt: In addition to tuning particle size, an important purpose of stabilizers is to prevent agglomeration and/or oxidation of the gold nanoparticles during storage. All of the stabilizers identified above have been discovered to provide beneficial stability for gold nanoparticles produced through methods of the invention. […] Carbohydrates are an additional stabilizer discovered to be useful with practice of methods of the invention. More than one stabilizer may be employed. Any selected stabilizer can be added at any time during the synthesis of the nanoparticles. Preferably, the stabilizer is present in solution prior to introduction of the final reactant (i.e., one or both of gold salt and phosphino amino acid are added to a solution that already contains a stabilizer).
Still additional example methods of the invention are directed to methods for storing and/or stabilizing gold nanoparticles. It has been discovered the use of phosphino amino acids, with TAAC being a preferred example, provide beneficial levels of stability for storing gold nanoparticles. In an example method of the invention, gold nanoparticles (that may have been, for example, produced through a method other than one of the present invention) are exposed to a phosphino amino acid such as TAAC to prevent their agglomeration.

prevention of agglomeration of gold nanoparticles (over periods of 7, 14 and even 30 days): substantially prevent agglomeration
SMILES: CC(NCP(CNC(C)C(=O)O)CNC(C)C(=O)O)C(=O)O (centres unmarked) [TAAC, trimeric alanine phosphine conjugate]
protection of gold nanoparticles from oxidation: help “protect” gold nanoparticles from oxidation
